Measured values reported in publication PMC4948780, “PARP Inhibitors in Clinical Use Induce Genomic Instability in Normal Human Cells” (PLoS ONE, 2016).

What was measured:
[1] = system: EBV-BL; experiment: Sister chromatid exchange (SCE) assay, BrdU differential staining; type: cell-based, human
Source text: (§1) Human mammary epithelial cell lines used included non-tumorigenic diploid MCF-10A, HMEC-hTERT and tumorigenic MDA-MB-468 (basal) and MCF-7 (luminal). […] Blood samples were obtained from normal donor participants. The participants provided written informed consent to IRB protocol #95–054 approved by the Institutional Review Board at MSKCC. The original signed consent is then sent to the research participant’s medical record and a copy of the consent is given to the participant. The EBV-transformed B-lymphocyte cell line (EBV-BL) was generated by transformation of peripheral blood mononuclear cells (PBMC) with the B95.8 strain of EBV, as previously described. Primary T cells were generated from PBMC from two normal donors by non-specific activation with phytohemagglutinin and cultured in RPMI1640 and human serum AB for 4–14 days before use. E14 mES cell line was provided by M. Hooper, Brca1^-/- 236.44 mES cell line was provided by B. H. Koller, Brca2^lex1/lex2 mES cell line was provided by P. Hasty and Lexicon Genetics. E14 wild-type, Brca1^-/- 236.44, and Brca2^lex1/lex2 mES cell lines were cultured in standard ES media. Brca1^-/- 236.44 cells express a BRCA1 peptide deleted for sequences encoded by exon 11 [52], while Brca2^lex1/lex2 cells express a BRCA2 peptide deleted for the terminal exon 27 [53]. Olaparib was synthesized in the MSKCC Organic chemistry core facility. Veliparib and BSI-201 were purchased from Chemie Tek. The compounds were dissolved in DMSO and PBS. For clonogenic survival assays, MCF-10A (1000 cells), HMEC-hTERT (1000 cells), MDA-MB-468 (1500 cells) and mouse ES cell (2000 cells) were seeded, vehicle control or inhibitors were added at the indicated concentration 24 hours after seeding and changed every three days for continuous treatment. At 7–14 days, colonies were fixed with methanol and stained with Giemsa. For EBV-BL (6 × 10^6) and primary T cells (3.6 × 10^6) were continuously exposed to the indicated concentration of drug for 10 days at 0.6 × 10^6 cells/ml. Viable cells were scored by trypan blue exclusion.
(§2) To prepare metaphase spreads, exponentially growing cells were treated with 0.1–0.3 μg/ml of colcemid for 1–6 hr. Cells were collected and incubated in hypotonic solution (0.56% KCl), fixed in methanol: acetic acid (3:1), spotted to slides and air-dried. To measure chromosomal aberrations, the slides were stained with 2% Giemsa/Sorensen’s buffer. To visualize SCEs, the doubling time for each cell type was determined. Cells were incubated with 10 μM BrdU for two cell cycles. After metaphase spreads were prepared, the slides were treated with 0.5 μg/ml Hoechst 33258. The slides were exposed to black light for 20–60 min, incubated at 60°C for 2 hr, and stained in 4–10% Giemsa/Sorensen’s buffer.

[2] = system: HMEC-hTERT; experiment: as above; type: cell-based, human; details: 1 μM, 30.5 hr
Source text: as §1, §2

[3] = system: MCF-10A; experiment: as above; type: cell-based, human
Source text: as §1, §2

[4] = system: MCF-7; experiment: as above; type: cell-based, human; details: 1 μM, 66.5 hr
Source text: as §1, §2

[5] = system: MDA-MB-468; experiment: as above; type: cell-based, human; details: 1 μM, 40 hr
Source text: as §1, §2

[6] = system: primary T cell 1; experiment: as above; type: cell-based, human; details: 1 μM, 99 hr
Source text: as §1, §2

[7] = system: primary T cell 2; experiment: as above; type: cell-based, human; details: 1 μM, 70 hr
Source text: as §1, §2

[8] = system: MCF-10A; experiment: Clonogenic survival assay; type: cell-based, human
Experimental: Clonogenic survival was assessed by colony counting at 9 days. […] Viable cells were scored and enumerated by trypan blue exclusion at 7 days. Means with SD are shown (MCF-10A: n = 3, primary T cell 1: n = 2). […] Fold increases of SCE per chromosome compared with no treatment or 0.5 μM cisplatin are shown for each cell type. Approximately 50 metaphases were counted for each cell. Error bars depict the mean with SD. Asterisks designate statistical significance for unpaired t-test at P < 0.0001. C. […] One hundred metaphases were counted for each exposure. Fold increases of chromatid-type aberrations per chromosome compared with no treatment or 0.5 μM cisplatin are shown for each cell type. The y-axis is the number of total chromatid-type aberrations per chromosome for each metaphase counted. Error bars indicate mean with SEM. The P-values were calculated using unpaired t-test.
as §1

[9] = system: repair-proficient human cells; experiment: Chromatid-type aberrations, summary over the human cell types; type: cell-based
Experimental: as §2

[10] = system: human cells; experiment: Olaparib cytotoxicity on continuous exposure, summary over cell types; type: cell-based; details: typical value over cell types
Source text: as §1, with “Olaparib was synthesized in the MSKCC Organic chemistry core facility. Veliparib and BSI-201 were purchased from Chemie Tek. The compounds were dissolved in DMSO and PBS. For clonogenic survival assays, MCF-10A (1000 cells), HMEC-hTERT (1000 cells), MDA-MB-468 (1500 cells) and mouse ES cell (2000 cells) were seeded, vehicle control or inhibitors were added at the indicated concentration 24 hours after seeding and changed every three days for continuous treatment. At 7–14 days, colonies were fixed with methanol and stained with Giemsa. For EBV-BL (6 × 10^6) and primary T cells (3.6 × 10^6) were continuously exposed to the indicated concentration of drug for 10 days at 0.6 × 10^6 cells/ml.” left out

## O=C(c1cc(Cc2n[nH]c(=O)c3ccccc23)ccc1F)N1CCN(C(=O)C2CC2)CC1 [olaparib]
[1]; 0.1 μM
  Mean no. SCE / metaphase ± SD: 26.0 ± 6.4
[1]; 0.5 μM
  Mean no. SCE / metaphase ± SD: 36.2 ± 7.4
[1]; 1 μM, 87 hr
  Mean no. SCE / chromosome ± SD: 1.13 ± 0.23
  Mean no. SCE / metaphase ± SD: 51.6 ± 10.6
[2]
  Mean no. SCE / chromosome ± SD: 1.30 ± 0.22
  Mean no. SCE / metaphase ± SD: 59.7 ± 10.0
[3]; 0.1 μM
  Mean no. SCE / metaphase ± SD: 33.0 ± 4.9
[3]; 0.5 μM
  Mean no. SCE / metaphase ± SD: 52.2 ± 9.8
[3]; 1 μM, 30 hr
  Mean no. SCE / chromosome ± SD: 1.57 ± 0.24
  Mean no. SCE / metaphase ± SD: 73.5 ± 10.9
[4]
  Mean no. SCE / metaphase ± SD: 152.4 ± 21.9
[5]
  Mean no. SCE / chromosome ± SD: 1.97 ± 0.38
  Mean no. SCE / metaphase ± SD: 107.9 ± 21.0
[6]
  Mean no. SCE / chromosome ± SD: 0.90 ± 0.20
  Mean no. SCE / metaphase ± SD: 41.3 ± 9.3
[7]
  Mean no. SCE / chromosome ± SD: 0.94 ± 0.21
  Mean no. SCE / metaphase ± SD: 43.0 ± 9.7
[8]; 1 μM
  survival (mean ± SD): 95.7 ± 1.9%
[8]; Homo sapiens, continuous exposure, clonogenic survival assay, read-out: IC50 (cell survival)
  IC50: 4.7 µM
[9]; clinically relevant doses (abstract)
  increase of chromatid aberrations: 2-6 fold
[9]; olaparib-treated cells, all cell types (1 in untreated)
  radial chromosomes identified: 12
[10]
  IC50: > 2000 nM
